# Values joined by “and” are separate entries in the source; they are usually repeats but may differ in a detail not shown here. Equal values may be shown once. Inconclusive results and toxic doses are left out.
# Test system: CD2F1 mice, L1210 leukemia ip, survival T/C
# Experiment: NCI In Vivo Anticancer Drug Screen. Data for tumor model L1210 Leukemia (intraperitoneal) in CD2F1 (CDF1) mice
# Conditions: higher = longer survival
# Procedure, shortened: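 Ratio T/C, where T is the treated-group value and C the vehicle-dosed control value, from mice implanted with a transplantable tumor.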
# [1] = endpoint: mean survival time, dose: 100.0 mg/kg/injection, schedule: Q01DX009 (ip), vehicle: saline with Tween-80
# [2] = endpoint: mean survival time, dose: 100.0 mg/kg/injection, schedule: Q04DX003 (ip), vehicle: saline with Tween-80
# [3] = endpoint: mean survival time, dose: 200.0 mg/kg/injection, schedule: Q01DX009 (ip), vehicle: saline with Tween-80
# [4] = endpoint: mean survival time, dose: 200.0 mg/kg/injection, schedule: Q04DX003 (ip), vehicle: saline with Tween-80
# [5] = endpoint: mean survival time, dose: 400.0 mg/kg/injection, schedule: Q04DX003 (ip), vehicle: saline with Tween-80
# [6] = endpoint: mean survival time, dose: 200.0 mg/kg/injection, schedule: Q01DX001 (ip), vehicle: saline with Tween-80
# [7] = endpoint: mean survival time, dose: 400.0 mg/kg/injection, schedule: Q01DX001 (ip), vehicle: saline with Tween-80
# [8] = endpoint: mean survival time, dose: 400.0 mg/kg/injection, schedule: Q01DX009 (ip), vehicle: saline with Tween-80
# [9] = endpoint: mean survival time, dose: 12.5 mg/kg/injection, schedule: Q04DX003 (ip), vehicle: distilled water + Tween-80
# [10] = endpoint: mean survival time, dose: 25.0 mg/kg/injection, schedule: Q04DX003 (ip), vehicle: distilled water + Tween-80
# [11] = endpoint: mean survival time, dose: 50.0 mg/kg/injection, schedule: Q04DX003 (ip), vehicle: distilled water + Tween-80
# [12] = endpoint: mean survival time, dose: 100.0 mg/kg/injection, schedule: Q04DX003 (ip), vehicle: distilled water + Tween-80
# [13] = endpoint: mean survival time, dose: 100.0 mg/kg/injection, schedule: Q01DX001 (ip), vehicle: saline with Tween-80
compound,measurement,setting,value
NCCSC1(O)C(=O)c2ccccc2C1=O,T/C,"endpoint: mean survival time, dose: 37.5 mg/kg/injection, schedule: Q01DX009 (ip), vehicle: saline",109 % of control
same,T/C,"endpoint: mean survival time, dose: 75.0 mg/kg/injection, schedule: Q01DX009 (ip), vehicle: saline",109 % of control
same,T/C,"endpoint: mean survival time, dose: 150.0 mg/kg/injection, schedule: Q01DX009 (ip), vehicle: saline",89 % of control
CC(=O)NC1CCCC(O)C1 (stereo not given),T/C,"endpoint: mean survival time, dose: 100.0 mg/kg/injection, schedule: Q04DX003 (ip), vehicle: saline",102 % of control
same,T/C,"endpoint: mean survival time, dose: 200.0 mg/kg/injection, schedule: Q04DX003 (ip), vehicle: saline",95 % of control
same,T/C,"endpoint: mean survival time, dose: 400.0 mg/kg/injection, schedule: Q04DX003 (ip), vehicle: saline",101 % of control
Cc1c(F)c(F)c(C(=O)O)c(F)c1F,T/C,[1],96 % of control
same,T/C,[2],100 % of control
same,T/C,[3],93 % of control
same,T/C,[4],101 % of control
same,T/C,[5],93 % of control
Nc1nc2c(ncn2-c2ccc(OCCCc3ccccc3)cc2)c(=O)[nH]1,T/C,[6],88 % of control
same,T/C,[7],89 % of control
CC(C)CN(CC(C)C)C(=S)[S-].CC(C)CN(CC(C)C)C(=S)[S-].[Zn],T/C,"endpoint: mean survival time, dose: 75.0 mg/kg/injection, schedule: Q04DX003 (ip), vehicle: saline",91 % of control
same,T/C,"endpoint: mean survival time, dose: 150.0 mg/kg/injection, schedule: Q04DX003 (ip), vehicle: saline",89 % of control
same,T/C,"endpoint: mean survival time, dose: 300.0 mg/kg/injection, schedule: Q04DX003 (ip), vehicle: saline",95 % of control
Nc1ccc(C(=O)Oc2ccc([N+](=O)[O-])cc2)cc1,T/C,[1],108 % of control
same,T/C,[3],102 % of control
same,T/C,[8],98 % of control
[Pd+2].[S-]CC[S-],T/C,"endpoint: mean survival time, dose: 3.13 mg/kg/injection, schedule: Q04DX003 (ip), vehicle: distilled water + Tween-80",101 % of control
same,T/C,"endpoint: mean survival time, dose: 6.25 mg/kg/injection, schedule: Q04DX003 (ip), vehicle: distilled water + Tween-80",102 % of control
same,T/C,[9],101 % of control
same,T/C,[10],104 % of control
same,T/C,[11],95 % of control
same,T/C,[12],95 % of control
same,T/C,"endpoint: mean survival time, dose: 200.0 mg/kg/injection, schedule: Q04DX003 (ip), vehicle: distilled water + Tween-80",95 % of control
Cc1ccc(N=C(N)NC#N)cc1,T/C,[1],91 % of control
same,T/C,[3],93 % of control
same,T/C,[8],91 % of control
O=[N+]([O-])c1ccc(/C=C/C=C/c2ccc(Cl)cc2Cl)cc1,T/C,[2],97 % of control
same,T/C,[4],104 % of control
same,T/C,[5],98 % of control
C(=N\Nc1nc2ccccc2s1)/c1ccccc1,T/C,"endpoint: mean survival time, dose: 100.0 mg/kg/injection, schedule: Q04DX003 (ip), vehicle: Klucel (hydroxypropylcellulose) (HPC)",100 % of control
same,T/C,"endpoint: mean survival time, dose: 200.0 mg/kg/injection, schedule: Q04DX003 (ip), vehicle: Klucel (hydroxypropylcellulose) (HPC)",105 % of control
same,T/C,"endpoint: mean survival time, dose: 400.0 mg/kg/injection, schedule: Q04DX003 (ip), vehicle: Klucel (hydroxypropylcellulose) (HPC)",92 % of control
Clc1ccc(C#Cc2ccc(Cl)cc2)cc1,T/C,"endpoint: mean survival time, dose: 75.0 mg/kg/injection, schedule: Q01DX001 (ip), vehicle: other",103 % of control
same,T/C,[2],100 % of control
same,T/C,"endpoint: mean survival time, dose: 150.0 mg/kg/injection, schedule: Q01DX001 (ip), vehicle: other",94 % of control
same,T/C,"endpoint: mean survival time, dose: 300.0 mg/kg/injection, schedule: Q01DX001 (ip), vehicle: other",88 % of control
same,T/C,[5],87 % of control
O=C(C=C(C(F)(F)F)C(F)(F)F)c1cccc([N+](=O)[O-])c1,T/C,"endpoint: mean survival time, dose: 12.5 mg/kg/injection, schedule: Q04DX003 (ip), vehicle: saline with Tween-80",103 % of control
same,T/C,"endpoint: mean survival time, dose: 25.0 mg/kg/injection, schedule: Q04DX003 (ip), vehicle: saline with Tween-80",96 % of control
N[C@@H](C[C@H]1CCC(=O)[C@@H]2O[C@H]12)C(=O)O,T/C,"endpoint: mean survival time, dose: 100.0 mg/kg/injection, schedule: Q04DX002 (ip), vehicle: saline",117 % of control and 107 % of control
same,T/C,"endpoint: mean survival time, dose: 400.0 mg/kg/injection, schedule: Q04DX002 (ip), vehicle: saline",167 % of control
same,T/C,"endpoint: median survival time, dose: 50.0 mg/kg/injection, schedule: Q01DX005 (ip), vehicle: saline",113 % of control and 110 % of control
same,T/C,"endpoint: median survival time, dose: 100.0 mg/kg/injection, schedule: Q01DX005 (ip), vehicle: saline",122 % of control and 124 % of control
same,T/C,"endpoint: median survival time, dose: 144.0 mg/kg/injection, schedule: Q01DX005 (ip), vehicle: saline",110 % of control
same,T/C,"endpoint: median survival time, dose: 172.8 mg/kg/injection, schedule: Q01DX005 (ip), vehicle: saline",119 % of control
same,T/C,"endpoint: median survival time, dose: 240.0 mg/kg/injection, schedule: Q01DX005 (ip), vehicle: saline",114 % of control
same,T/C,"endpoint: median survival time, dose: 288.0 mg/kg/injection, schedule: Q01DX005 (ip), vehicle: saline",121 % of control
same,T/C,"endpoint: median survival time, dose: 800.0 mg/kg/injection, schedule: Q01DX005 (ip), vehicle: saline",155 % of control
O=c1ccn(C2OC(CO)C(F)(CO)C2O)c(=O)[nH]1 (stereo not given),T/C,"endpoint: mean survival time, dose: 12.5 mg/kg/injection, schedule: Q01DX005 (ip), vehicle: water",103 % of control
same,T/C,"endpoint: mean survival time, dose: 25.0 mg/kg/injection, schedule: Q01DX005 (ip), vehicle: water",109 % of control
same,T/C,"endpoint: mean survival time, dose: 50.0 mg/kg/injection, schedule: Q01DX005 (ip), vehicle: water",97 % of control
same,T/C,"endpoint: mean survival time, dose: 100.0 mg/kg/injection, schedule: Q01DX005 (ip), vehicle: water",94 % of control
same,T/C,"endpoint: mean survival time, dose: 200.0 mg/kg/injection, schedule: Q01DX005 (ip), vehicle: water",105 % of control
COc1ccc(C(=O)O)c(N)c1,T/C,[1],95 % of control
same,T/C,[2],94 % of control
same,T/C,[3],92 % of control
same,T/C,[4],97 % of control
same,T/C,[8],101 % of control
same,T/C,[5],97 % of control
C=C(Br)CNC(=O)NCC(=C)Br,T/C,[13],91 % of control
same,T/C,[6],96 % of control
same,T/C,[7],101 % of control
CCC(C)C(=O)O[C@H]1C(=O)O[C@@H]2C[C@H]3C(C)=CC(=O)[C@@H](O)[C@]3(C)[C@H]3[C@@H](O)[C@H](O)[C@@]4(C)OC[C@]32[C@@H]14 (stereo not given in full),T/C,"endpoint: mean survival time, dose: 2.0 mg/kg/injection, schedule: Q01DX009 (ip), vehicle: saline + alcohol",104 % of control
same,T/C,"endpoint: mean survival time, dose: 4.0 mg/kg/injection, schedule: Q01DX009 (ip), vehicle: saline + alcohol",102 % of control
O=[N+]([O-])c1ccccc1N=C(c1ccccc1)N(O)c1ccccc1,T/C,"endpoint: mean survival time, dose: 9.4 mg/kg/injection, schedule: Q01DX009 (ip), vehicle: saline with Tween-80",101 % of control
same,T/C,"endpoint: mean survival time, dose: 9.4 mg/kg/injection, schedule: Q04DX003 (ip), vehicle: saline with Tween-80",98 % of control
same,T/C,"endpoint: mean survival time, dose: 18.8 mg/kg/injection, schedule: Q01DX001 (ip), vehicle: saline",101 % of control
same,T/C,"endpoint: mean survival time, dose: 18.8 mg/kg/injection, schedule: Q01DX009 (ip), vehicle: saline with Tween-80",104 % of control
same,T/C,"endpoint: mean survival time, dose: 18.8 mg/kg/injection, schedule: Q04DX003 (ip), vehicle: saline with Tween-80",100 % of control
same,T/C,"endpoint: mean survival time, dose: 37.5 mg/kg/injection, schedule: Q01DX001 (ip), vehicle: saline",102 % of control
CCOc1ccc(-n2c(=O)c(N=Nc3ccccc3OC)c(O)n(-c3ccc(C)cc3)c2=S)cc1,T/C,[13],98 % of control
same,T/C,[6],101 % of control
same,T/C,[7],97 % of control
O.[Cl][Pt].[NH-]CC[S-],T/C,[9],90 % of control
same,T/C,[10],102 % of control
same,T/C,[11],95 % of control
same,T/C,[12],100 % of control

# Reference: PubChem BioAssay AID256 (DTP/NCI, 2004)
